# Tested on: K12877-001-R-J1-PDC complex spheroid viability
# Test: Anticancer human tumor K12877-001-R-J1-PDC patient-derived lung adenocarcinoma cell line growth inhibition [RAS]
# Conditions: for IC50: curve of first compound; for viability, T/C: stronger effect = lower value
# Procedure, shortened: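 Tumour cells grown as complex spheroids with HUVEC endothelial cells and mesenchymal stem cells, treated with RAS pathway inhibitor combinations. Each agent spans half-log steps from near clinical Cmax, or 10 microM where Cmax is unknown.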
# [1] = second compound 0.00316 µM, first compound 0.0316 µM
# [2] = second compound 0.00316 µM, first compound 0.1 µM
# [3] = second compound 0.00316 µM, first compound 0.316 µM
# [4] = second compound 0.00316 µM, first compound 1 µM
# [5] = second compound 0.00316 µM, first compound 3.16 µM
# [6] = second compound 0.00316 µM, first compound 10 µM
# [7] = second compound 0.01 µM, first compound 0.0316 µM
# [8] = second compound 0.01 µM, first compound 0.1 µM
# [9] = second compound 0.01 µM, first compound 0.316 µM
# [10] = second compound 0.01 µM, first compound 1 µM
# [11] = second compound 0.01 µM, first compound 3.16 µM
# [12] = second compound 0.01 µM, first compound 10 µM
# [13] = second compound 0.0316 µM, first compound 0.0316 µM
# [14] = second compound 0.0316 µM, first compound 0.1 µM
# [15] = second compound 0.0316 µM, first compound 0.316 µM
# [16] = second compound 0.0316 µM, first compound 1 µM
# [17] = second compound 0.0316 µM, first compound 3.16 µM
# [18] = second compound 0.0316 µM, first compound 10 µM
# [19] = second compound 0.1 µM, first compound 0.0316 µM
# [20] = second compound 0.1 µM, first compound 0.1 µM
# [21] = second compound 0.1 µM, first compound 0.316 µM
# [22] = second compound 0.1 µM, first compound 1 µM
# [23] = second compound 0.1 µM, first compound 3.16 µM
# [24] = second compound 0.1 µM, first compound 10 µM
# [25] = second compound 0.316 µM, first compound 0.0316 µM
# [26] = second compound 0.316 µM, first compound 0.1 µM
# [27] = second compound 0.316 µM, first compound 0.316 µM
# [28] = second compound 0.316 µM, first compound 1 µM
# [29] = second compound 0.316 µM, first compound 3.16 µM
# [30] = second compound 0.316 µM, first compound 10 µM
# [31] = second compound 1 µM, first compound 0.0316 µM
# [32] = second compound 1 µM, first compound 0.1 µM
# [33] = second compound 1 µM, first compound 0.316 µM
# [34] = second compound 1 µM, first compound 1 µM
# [35] = second compound 1 µM, first compound 3.16 µM
# [36] = second compound 1 µM, first compound 10 µM
# 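Also: spheroids exposed to agents for one week before readout.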
# 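For viability, T/C in this document: tumour cells co-cultured with HUVEC and mesenchymal stem cells in spheroids.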
smiles,measurement,setting,value
CC(Nc1ccc2c(c1)OCCn1cc(N3C(=O)OCC3C(F)F)nc1-2)C(N)=O (stereo unspecified) + C=CC(=O)N1CCN(c2nc(OCC3CCCN3C)nc3c(F)c(-c4nc(N)cc(C)c4C(F)(F)F)c(Cl)cc23)C(C)C1,IC50,second compound 0.00316 µM,1220 nM
same,IC50,second compound 0.01 µM,1920 nM
same,IC50,second compound 0.0316 µM,2120 nM
same,IC50,second compound 0.1 µM,1860 nM
same,IC50,second compound 0.316 µM,1160 nM
same,IC50,second compound 1 µM,1430 nM
same,"viability, T/C",[1],92%
same,"viability, T/C",[2],72.8%
same,"viability, T/C",[3],57.6%
same,"viability, T/C",[4],61.6%
same,"viability, T/C",[5],44.9%
same,"viability, T/C",[6],21.3%
same,"viability, T/C",[7],86.3%
same,"viability, T/C",[8],69.6%
same,"viability, T/C",[9],57.9%
same,"viability, T/C",[10],64%
same,"viability, T/C",[11],48.7%
same,"viability, T/C",[12],18.7%
same,"viability, T/C",[13],74.3%
same,"viability, T/C",[14],78.4%
same,"viability, T/C",[15],57.6%
same,"viability, T/C",[16],63.1%
same,"viability, T/C",[17],46.2%
same,"viability, T/C",[18],16.8%
same,"viability, T/C",[19],76.7%
same,"viability, T/C",[20],64.7%
same,"viability, T/C",[21],65%
same,"viability, T/C",[22],63.2%
same,"viability, T/C",[23],40.4%
same,"viability, T/C",[24],15%
same,"viability, T/C",[25],75.9%
same,"viability, T/C",[26],79.1%
same,"viability, T/C",[27],62.3%
same,"viability, T/C",[28],50.9%
same,"viability, T/C",[29],37.6%
same,"viability, T/C",[30],19.1%
same,"viability, T/C",[31],77%
same,"viability, T/C",[32],70.9%
same,"viability, T/C",[33],62.2%
same,"viability, T/C",[34],53.1%
same,"viability, T/C",[35],43.5%
same,"viability, T/C",[36],19.6%
CCN1CCN(Cc2ccc(Nc3ncc(F)c(-c4cc(F)c5nc(C)n(C(C)C)c5c4)n3)nc2)CC1 + C=CC(=O)N1CCN(c2nc(OCC3CCCN3C)nc3c(F)c(-c4nc(N)cc(C)c4C(F)(F)F)c(Cl)cc23)C(C)C1,IC50,second compound 0.00316 µM,945 nM
same,IC50,second compound 0.01 µM,545 nM
same,IC50,second compound 0.0316 µM,691 nM
same,IC50,second compound 0.1 µM,614 nM
same,IC50,second compound 0.316 µM,597 nM
same,IC50,second compound 1 µM,696 nM
same,"viability, T/C","second compound 0.00316 µM, first compound 0.00316 µM",95.9%
same,"viability, T/C","second compound 0.00316 µM, first compound 0.01 µM",103%
same,"viability, T/C",[1],97.2%
same,"viability, T/C",[2],91.3%
same,"viability, T/C",[3],83.5%
same,"viability, T/C",[4],47.8%
same,"viability, T/C","second compound 0.01 µM, first compound 0.00316 µM",88.3%
same,"viability, T/C","second compound 0.01 µM, first compound 0.01 µM",89.8%
same,"viability, T/C",[7],85.2%
same,"viability, T/C",[8],95.4%
same,"viability, T/C",[9],65.2%
same,"viability, T/C",[10],33.2%
same,"viability, T/C","second compound 0.0316 µM, first compound 0.00316 µM",96.4%
same,"viability, T/C","second compound 0.0316 µM, first compound 0.01 µM",90.4%
same,"viability, T/C",[13],76.5%
same,"viability, T/C",[14],76.7%
same,"viability, T/C",[15],75.8%
same,"viability, T/C",[16],39.2%
same,"viability, T/C","second compound 0.1 µM, first compound 0.00316 µM",92.2%
same,"viability, T/C","second compound 0.1 µM, first compound 0.01 µM",84.5%
same,"viability, T/C",[19],83.3%
same,"viability, T/C",[20],72.4%
same,"viability, T/C",[21],65.8%
same,"viability, T/C",[22],39.6%
same,"viability, T/C","second compound 0.316 µM, first compound 0.00316 µM",95.2%
same,"viability, T/C","second compound 0.316 µM, first compound 0.01 µM",86.5%
same,"viability, T/C",[25],79.9%
same,"viability, T/C",[26],77.9%
same,"viability, T/C",[27],78.6%
same,"viability, T/C",[28],30.1%
same,"viability, T/C","second compound 1 µM, first compound 0.00316 µM",85%
same,"viability, T/C","second compound 1 µM, first compound 0.01 µM",77.2%
same,"viability, T/C",[31],88.1%
same,"viability, T/C",[32],81.1%
same,"viability, T/C",[33],74.1%
same,"viability, T/C",[34],38.9%
C[C@@H](NC(=O)c1ncnc(N)c1Cl)c1ncc(C(=O)Nc2cc(C(F)(F)F)c(Cl)cn2)s1 + C=CC(=O)N1CCN(c2nc(OCC3CCCN3C)nc3c(F)c(-c4nc(N)cc(C)c4C(F)(F)F)c(Cl)cc23)C(C)C1,IC50,second compound 0.00316 µM,> 10000 nM
same,IC50,second compound 0.01 µM,> 10000 nM
same,IC50,second compound 0.0316 µM,> 10000 nM
same,IC50,second compound 0.1 µM,> 10000 nM
same,IC50,second compound 0.316 µM,> 10000 nM
same,IC50,second compound 1 µM,> 10000 nM
same,"viability, T/C",[1],94.8%
same,"viability, T/C",[2],89.7%
same,"viability, T/C",[3],95.6%
same,"viability, T/C",[4],99.1%
same,"viability, T/C",[5],101%
same,"viability, T/C",[6],99.8%
same,"viability, T/C",[7],96.8%
same,"viability, T/C",[8],82.5%
same,"viability, T/C",[9],92.6%
same,"viability, T/C",[10],92.9%
same,"viability, T/C",[11],97.1%
same,"viability, T/C",[12],85.4%
same,"viability, T/C",[13],91%
same,"viability, T/C",[14],86.9%
same,"viability, T/C",[15],74.3%
same,"viability, T/C",[16],90.1%
same,"viability, T/C",[17],86.8%
same,"viability, T/C",[18],96.5%
same,"viability, T/C",[19],89.6%
same,"viability, T/C",[20],83.5%
same,"viability, T/C",[21],84.7%
same,"viability, T/C",[22],90.4%
same,"viability, T/C",[23],83.7%
same,"viability, T/C",[24],85.2%
same,"viability, T/C",[25],81.4%
same,"viability, T/C",[26],81.8%
same,"viability, T/C",[27],77.1%
same,"viability, T/C",[28],83.6%
same,"viability, T/C",[29],83.1%
same,"viability, T/C",[30],116%
same,"viability, T/C",[31],75%
same,"viability, T/C",[32],75.8%
same,"viability, T/C",[33],89.5%
same,"viability, T/C",[34],92.5%
same,"viability, T/C",[35],91.1%
same,"viability, T/C",[36],113%

# From PubChem BioAssay AID2060894 (Molecular Pharmacology Branch, DTP, NCI, 2025)
